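The compound was tested at five concentrations on cells cultured in 96-well plates, with a 48-hour exposure period. GI50 = concentration required for 50% inhibition of growth.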 Calls of active or inactive are those of the source. No stated cut-off is given here; in the data, active = GI50 up to about 1.1 µM and inactive = higher.
What was measured:
Assay in all cases: DTP human tumour cell line panel, 48 h
HL-60 = system: HL-60
MDA-MB-435 = system: MDA-MB-435
OVCAR-4 = system: OVCAR-4
SK-OV-3 = system: SK-OV-3
UACC-62 = system: UACC-62
MOLT-4 = system: MOLT-4
NCI-H522 = system: NCI-H522
ACHN = system: ACHN
U-251 = system: U-251
A549 = system: A549
SNB-19 = system: SNB-19
UO-31 = system: UO-31
MDA-MB-231 = system: MDA-MB-231
Hs-578T = system: Hs-578T
KM12 = system: KM12
SR = system: SR
MCF7 = system: MCF7
BT-549 = system: BT-549
NCI-H460 = system: NCI-H460
SK-MEL-28 = system: SK-MEL-28
HT-29 = system: HT-29
CCRF-CEM = system: CCRF-CEM
PC-3 = system: PC-3
M14 = system: M14
TK-10 = system: TK-10
SF-295 = system: SF-295
HCT-116 = system: HCT-116
HOP-92 = system: HOP-92
SF-539 = system: SF-539
SK-MEL-5 = system: SK-MEL-5
UACC-257 = system: UACC-257
HCT-15 = system: HCT-15
RXF 393 = system: RXF 393
HOP-62 = system: HOP-62
SW-620 = system: SW-620
IGROV-1 = system: IGROV-1
NCI-H226 = system: NCI-H226
786-0 = system: 786-0
OVCAR-5 = system: OVCAR-5
Malme-3M = system: Malme-3M
SK-MEL-2 = system: SK-MEL-2
HCC 2998 = system: HCC 2998
OVCAR-8 = system: OVCAR-8
COLO 205 = system: COLO 205
NCI-H23 = system: NCI-H23
EKVX = system: EKVX
OVCAR-3 = system: OVCAR-3
SF-268 = system: SF-268
NCI/ADR-RES = system: NCI/ADR-RES
K562 = system: K562
RPMI-8226 = system: RPMI-8226
CAKI-1 = system: CAKI-1
MDA-N = system: MDA-N
SNB-75 = system: SNB-75
LOX IMVI = system: LOX IMVI
DU-145 = system: DU-145

With `CCOc1ccc(/N=N/c2ccc(-c3ccc(/N=N/c4c(O)ccc5cc(S(=O)(=O)O)cc(S(=O)(=O)O)c45)cc3)cc2)cc1` the GI50 (HL-60) was > 100 µM (inactive), the GI50 (MDA-MB-435) was > 100 µM (inactive) and the GI50 (OVCAR-4) was > 100 µM (inactive). For the same compound, the GI50 (SK-OV-3) was > 100 µM (inactive), the GI50 (UACC-62) was > 100 µM (inactive) and the GI50 (MOLT-4) was > 100 µM (inactive). For the same compound, the GI50 (NCI-H522) was 63.2 µM (inactive), the GI50 (ACHN) was > 100 µM (inactive) and the GI50 (U-251) was > 100 µM (inactive). The GI50 (A549) was > 100 µM (inactive), the GI50 (SNB-19) was > 100 µM (inactive) and the GI50 (UO-31) was > 100 µM (inactive). For the same compound, the GI50 (MDA-MB-231) was > 100 µM (inactive), the GI50 (Hs-578T) was > 100 µM (inactive) and the GI50 (KM12) was > 100 µM (inactive). For the same compound, the GI50 (SR) was 66.2 µM (inactive), the GI50 (MCF7) was > 100 µM (inactive) and the GI50 (BT-549) was > 100 µM (inactive). The GI50 (NCI-H460) was > 100 µM (inactive), the GI50 (SK-MEL-28) was > 100 µM (inactive) and the GI50 (HT-29) was > 100 µM (inactive). The GI50 (CCRF-CEM) was > 100 µM (inactive), the GI50 (PC-3) was > 100 µM (inactive) and the GI50 (M14) was > 100 µM (inactive). For the same compound, the GI50 (TK-10) was > 100 µM (inactive), the GI50 (SF-295) was > 100 µM (inactive) and the GI50 (HCT-116) was > 100 µM (inactive). For the same compound, the GI50 (HOP-92) was > 100 µM (inactive), the GI50 (SF-539) was > 100 µM (inactive) and the GI50 (SK-MEL-5) was > 100 µM (inactive). For the same compound, the GI50 (UACC-257) was > 100 µM (inactive), the GI50 (HCT-15) was 86.5 µM and the GI50 (RXF 393) was > 100 µM (inactive). The GI50 (HOP-62) was > 100 µM (inactive), the GI50 (SW-620) was > 100 µM (inactive) and the GI50 (IGROV-1) was > 100 µM (inactive). The GI50 (NCI-H226) was > 100 µM (inactive), the GI50 (786-0) was > 100 µM (inactive) and the GI50 (OVCAR-5) was > 100 µM (inactive). For the same compound, the GI50 (Malme-3M) was 18.5 µM (inactive), the GI50 (SK-MEL-2) was > 100 µM (inactive) and the GI50 (HCC 2998) was > 100 µM (inactive). The GI50 (OVCAR-8) was > 100 µM (inactive), the GI50 (COLO 205) was > 100 µM (inactive) and the GI50 (NCI-H23) was > 100 µM (inactive). The GI50 (EKVX) was > 100 µM (inactive), the GI50 (OVCAR-3) was > 100 µM (inactive) and the GI50 (SF-268) was > 100 µM (inactive). The GI50 (NCI/ADR-RES) was > 100 µM (inactive), the GI50 (K562) was > 100 µM (inactive) and the GI50 (RPMI-8226) was > 100 µM (inactive). For the same compound, the GI50 (CAKI-1) was > 100 µM (inactive).

With `COc1ccccc1/C=C1\SC(=S)N(/C=C2\C(=O)Oc3ccccc3C2=O)C1=O` the GI50 (MDA-MB-435) was 25.6 µM (inactive), the GI50 (OVCAR-4) was 33.2 µM (inactive) and the GI50 (SK-OV-3) was 23 µM (inactive). The GI50 (UACC-62) was 23.8 µM (inactive), the GI50 (MOLT-4) was 33.9 µM (inactive) and the GI50 (NCI-H522) was 26.5 µM (inactive). For the same compound, the GI50 (ACHN) was 47.5 µM (inactive), the GI50 (U-251) was 34.3 µM (inactive) and the GI50 (A549) was 27.9 µM (inactive). For the same compound, the GI50 (SNB-19) was 32.7 µM (inactive), the GI50 (UO-31) was 23.2 µM (inactive) and the GI50 (MDA-MB-231) was 23 µM (inactive). The GI50 (Hs-578T) was 33.5 µM (inactive), the GI50 (MDA-N) was 33.4 µM (inactive) and the GI50 (KM12) was 34.3 µM (inactive). For the same compound, the GI50 (MCF7) was 35.5 µM (inactive), the GI50 (BT-549) was 21.1 µM (inactive) and the GI50 (HT-29) was 38.7 µM (inactive). The GI50 (CCRF-CEM) was 36.2 µM (inactive), the GI50 (PC-3) was 38.5 µM (inactive) and the GI50 (M14) was 36.2 µM (inactive). The GI50 (TK-10) was 28.1 µM (inactive), the GI50 (HCT-116) was 34.4 µM (inactive) and the GI50 (HOP-92) was 18.4 µM (inactive). For the same compound, the GI50 (SF-539) was 29 µM (inactive), the GI50 (SK-MEL-5) was 20.5 µM (inactive) and the GI50 (UACC-257) was 22.9 µM (inactive). For the same compound, the GI50 (HCT-15) was 28.1 µM, the GI50 (SNB-75) was 22 µM (inactive) and the GI50 (SW-620) was 43.2 µM (inactive). The GI50 (IGROV-1) was 36.6 µM (inactive), the GI50 (NCI-H226) was 35.3 µM (inactive) and the GI50 (786-0) was 34.8 µM (inactive). For the same compound, the GI50 (OVCAR-5) was 59.8 µM (inactive), the GI50 (Malme-3M) was 23.2 µM (inactive) and the GI50 (SK-MEL-2) was 21.9 µM (inactive). For the same compound, the GI50 (OVCAR-8) was 28.8 µM (inactive), the GI50 (COLO 205) was 24 µM (inactive) and the GI50 (NCI-H23) was 1.62 µM (inactive). The GI50 (LOX IMVI) was 34.9 µM (inactive), the GI50 (EKVX) was 24.1 µM (inactive) and the GI50 (OVCAR-3) was 19.8 µM (inactive). For the same compound, the GI50 (DU-145) was 33.3 µM (inactive), the GI50 (SF-268) was 33.3 µM (inactive) and the GI50 (NCI/ADR-RES) was 29.3 µM (inactive). The GI50 (K562) was 36.6 µM (inactive) and the GI50 (CAKI-1) was 0.458 µM (active).

From ChEMBL document CHEMBL1201862, “PubChem BioAssay data set” (2004)
